Assay results from the RepoRT retention time repository (doi:10.1021/acs.analchem.1c00972).

What was measured:
[1] = RP, Waters ACQUITY UPLC BEH C18, 100 × 1 mm, 1.7 µm, 50 °C, 0.3 mL/min, estimated dead time 0.17 min; A: water + 0.1% formic acid + 20 mM ammonium formate; B: methanol + 0.1% formic acid + 20 mM ammonium formate; gradient (min/%B) 0/0 15/100 21/100 22/0 30/0; settings: stereoisomer not certain
[2] = RP, Waters ACQUITY UPLC BEH C18, 100 × 1 mm, 1.7 µm, 50 °C, 0.3 mL/min, estimated dead time 0.17 min; A: water + 10 mM ammonium bicarbonate; B: 10% water + 90% methanol + 10 mM ammonium bicarbonate; gradient (min/%B) 0/0 15/100 21/100 22/0 30/0; settings: stereoisomer not certain

| Compound | LC retention time [1] [min] | LC retention time [2] [min] |
| --- | --- | --- |
| CC=C(C)C(=O)OC1CC[N+]2([O-])CC=C(COC(=O)C(O)(C(C)OC)C(C)(C)O)C12 (configuration not stated) [Lasiocarpine N-oxide] | 11 | 11.7 |
| CC=C(C)C(=O)OC1CCN2CC=C(COC(=O)C(O)(C(C)OC)C(C)(C)O)C12 (configuration not stated) [Lasiocarpine] | 10.4 | 13.9 |
| C=C1CCC2C(C=C(C)C(=O)C3(O)CC(C)C(O)C3C1O)C2(C)C (configuration not stated) [Lathyrol] | 14.7 | 15 |
| CC(=O)NCC1CN(c2ccc(N3CCOCC3)c(F)c2)C(=O)O1 (configuration not stated) [Linezolid] | 9.9 | 10 |
| O=C1Nc2ccc(Cl)cc2C(c2ccccc2Cl)=NC1O (configuration not stated) [Lorazepam] | 13.2 | 13.5 |
| OC1C=C2CCN3Cc4cc5c(cc4C(C1O)C23)OCO5 (configuration not stated) [Lycorine] | 4.33 | 9.11 |
| CNCCCC12CCC(c3ccccc31)c1ccccc12 [Maprotiline] | 12.8 | 15.4 |
| O=C1CCCC2C3CCCN4CCCC(CN12)C34 (configuration not stated) [Matrine] | 5.2 | 13 |
| CN1CCN=C(c2ccccc2)c2cc(Cl)ccc21 [Medazepam] | 11.4 | 16.4 |
| CN(C(=O)COc1nc2ccccc2s1)c1ccccc1 [Mefenacet] | 14.6 | 14.9 |
| CC(=O)OC1(C(C)=O)CCC2C3C=C(C)C4=CC(=O)CCC4(C)C3CCC21C (configuration not stated) [Megestrol-17-acetate] | 15.3 | 15.6 |
| CC12CC3CC(C)(C1)CC(N)(C3)C2 [Memantine] | 11.9 | 13.7 |
| CCOC(=O)C1(c2ccccc2)CCN(C)CC1 [Meperidine] | 9.63 | 14.2 |
| CNC(=O)N(C)c1nc2ccccc2s1 [Methabenzthiazuron] | 12.7 | 13 |
| CCC(=O)C(CC(C)N(C)C)(c1ccccc1)c1ccccc1 (configuration not stated) [Methadone] | 13.1 | 18.2 |
| Cn1cc[nH]c1=S [Methimazol] | 2.75 | 2.82 |
| CNC(=O)Oc1cc(C)c(S(C)(=O)=O)c(C)c1 [Methiocarb sulfone] | 9.58 | 9.75 |
| COc1ccccc1OCC(O)COC(N)=O (configuration not stated) [Methocarbamol] | 9.52 | 9.71 |
| COc1cc(OC)n2nc(S(=O)(=O)Nc3c(Cl)ccc(C)c3Cl)nc2n1 [Metosulam] | 12 | 10.9 |
| COc1ccc(NC(=O)N(C)C)cc1Cl [Metoxuron] | 10.6 | 10.7 |

| Compound | LC retention time [1] [min] | LC retention time [2] [min] |
| --- | --- | --- |
| COc1cc(C)c(C(=O)c2c(OC)ccc(Br)c2C)c(OC)c1OC [Metrafenone] | 16 | 16.4 |
| CNC(=O)Oc1cc(C)c(N(C)C)c(C)c1 [Mexacarbate] | 8.62 | 14.8 |
| Cc1ncc2n1-c1ccc(Cl)cc1C(c1ccccc1F)=NC2 [Midazolam] | 11.4 | 14.6 |
| CN1CCN2c3ncccc3Cc3ccccc3C2C1 (configuration not stated) [Mirtazapine] | 9.7 | 14.9 |
| CC1C(=O)OC2CCN3CC=C(COC(=O)C(C)(O)C1(C)O)C23 (configuration not stated) [Monocrotaline] | 5.17 | 8.97 |
| CN1CCC23c4c5ccc(O)c4OC2C(O)C=CC3C1C5 (configuration not stated) [Morphine] | 4.19 | 10.4 |
| COc1c(C(C)(C)C)cc([N+](=O)[O-])c(C)c1[N+](=O)[O-] [Musk ambrette] | 8.38 | 6.58 |
| CC(C)CC(C)Nc1ccc(Nc2ccccc2)cc1 (configuration not stated) [N-(1,3-Dimethylbutyl)-N'-phenyl-1,4-phenylenediamine] | 13.3 | 17.2 |
| CN=CNc1ccc(C)cc1C [N-(2,4-Dimethylphenyl)-N-methyl-formamidine] | 7.83 | 12.1 |
| CC(=O)N(C)c1ccc(N)cc1 [N-(4-Aminophenyl)-N-methyl-acetamid] | 5.17 | 7.24 |
| CN(C1CCCCC1)C1CCCCC1 [N-Methyl-dicyclohexylamine] | 9.22 | 13.1 |
| O=NN1CCOCC1 [N-Nitrosomorpholine] | 3.69 | 3.78 |
| COP(=O)(OC)OC(Br)C(Cl)(Cl)Br (configuration not stated) [Naled] | 13.3 | 13.6 |
| COc1ccc2cc(C(C)C(=O)O)ccc2c1 (configuration not stated) [Naproxen] | 13.8 | 11 |
| O=C1NC2C(=CC(O)C(O)C2O)c2cc3c(c(O)c21)OCO3 (configuration not stated) [Narciclasine] | 7.92 | 7.93 |
| COC1CC(CC2CCC(C)C(C(C)C(=O)O)O2)OC2(OC(C)(C3CCC(C)(C4OC(C5OC(O)(CO)C(C)CC5C)CC4C)O3)CC2C)C1C (configuration not stated) [Nigericin] | 18.8 | 19.7 |
| CC1=CC2OC3C(O)C(O)C(C)(C34CO4)C2(CO)C(O)C1=O (configuration not stated) [Nivalenol] | 5.87 | 5.94 |
| C#CC1(O)CCC2C3CCC4=CC(=O)CCC4C3CCC21C (configuration not stated) [Norethindrone] | 13.9 | 14.2 |
| C#CC1(OC(C)=O)CCC2C3CCC4=CC(=O)CCC4C3CCC21C (configuration not stated) [Norethisterone acetate] | 15.4 | 15.7 |
| CNc1cnn(-c2cccc(C(F)(F)F)c2)c(=O)c1Cl [Norflurazon] | 13.3 | 13.5 |

The next lines start with the values.

| LC retention time [1] [min] | LC retention time [2] [min] | Compound |
| --- | --- | --- |
| 16.7 | 17.1 | CCCCCCCCCCCC(=O)NCC(C)O (configuration not stated) [Lauric isopropanolamide] |
| 16.4 | 16.8 | CCCCCCCCCCCC(=O)N(CCO)CCO [Lauryl diethanolamide] |
| 6.7 | 11.8 | c1ccc(C2CN3CCSC3=N2)cc1 (configuration not stated) [Levamisole] |
| 13.7 | 16.3 | CN(C)C(=O)C(CCN1CCC(O)(c2ccc(Cl)cc2)CC1)(c1ccccc1)c1ccccc1 [Loperamide] |
| 16.8 | 17.2 | CCC(C)C(=O)OC1CC(C)C=C2C=CC(C)C(CCC3CC(O)CC(=O)O3)C21 (configuration not stated) [Lovastatin] |
| 12.5 | 12.9 | COC(=O)Nc1nc2ccc(C(=O)c3ccccc3)cc2[nH]1 [Mebendazole] |
| 12.1 | 17.1 | CCN(CCCCOC(=O)c1ccc(OC)c(OC)c1)C(C)Cc1ccc(OC)cc1 (configuration not stated) [Mebeverine] |
| 15.2 | 15.5 | CC(=O)C1(O)CCC2C3CC(C)C4=CC(=O)CCC4(C)C3CCC21C (configuration not stated) [Medroxyprogesterone] |
| 15.4 | 15.8 | CC(=O)OC1(C(C)=O)CCC2C3CC(C)C4=CC(=O)CCC4(C)C3CCC21C (configuration not stated) [Medroxyprogesteroneacetate] |
| 10 | 15.4 | CC1CCN(CCCC(=O)c2ccc(F)cc2)CC1 [Melperon] |
| 8.36 | 13.1 | Cc1cccc(C)c1NC(=O)C1CCCCN1C (configuration not stated) [Mepivacaine] |
| 13.1 | 14.2 | COCCCNc1nc(NC(C)C)nc(SC)n1 [Methoprothryne] |
| 7.89 | 6.74 | CN(Cc1cnc2nc(N)nc(N)c2n1)c1ccc(C(=O)NC(CCC(=O)O)C(=O)O)cc1 (configuration not stated) [Methotrexate] |
| 11.2 | 11.4 | CN1C(=O)CC(C)(c2ccccc2)C1=O (configuration not stated) [Methsuximide] |
| 12.6 | 12.9 | CCc1cccc(C)c1N1C(=O)COCC1C (configuration not stated) [Metolachlor-morpholinone] |
| 9.58 | 12.4 | COCCc1ccc(OCC(O)CNC(C)C)cc1 (configuration not stated) [Metoprolol] |
| 15.7 | 18 | Clc1ccc(COC(Cn2ccnc2)c2ccc(Cl)cc2Cl)c(Cl)c1 (configuration not stated) [Miconazole] |
| 18.6 | 19 | CON=C1CC2(CC3CC(CC=C(C)CC(C)C=CC=C4COC5C(O)C(C)=CC(C(=O)O3)C45O)O2)OC(C(C)=CC(C)C)C1C (configuration not stated) [Moxidectin] |
| 16.1 | 16.5 | CCCCCCCCCC(=O)N(C)C [N,N-Dimethyldecan-1-amide] |
| 13.8 | 15.2 | CCCCCCCCCC[N+](C)(C)[O-] [N,N-Dimethyldecylamine-N-oxide] |
| 11.4 | 11.6 | CCNS(=O)(=O)c1ccccc1C [N-Ethyl-o-toluenesulfonamide] |
| 15.2 | 17.7 | CCCCCCCCCCCCNC [N-Methyldodecylamine] |
| 14.1 | 15.8 | c1ccc2sc(NC3CCCCC3)nc2c1 [N-cyclohexyl-2-benzothiazole-amine] |
| 11.5 | 10.4 | COc1ccc(CCC(=O)c2c(O)cc(OC3OC(CO)C(O)C(O)C3OC3OC(C)C(O)C(O)C3O)cc2O)cc1O (configuration not stated) [Neohesperidin DC] |
| 16.7 | 13.6 | O=C(Nc1ccc([N+](=O)[O-])cc1Cl)c1cc(Cl)ccc1O [Niclosamide] |
| 16.4 | 16.6 | C#CC1(OC(C)=O)CCC2C3CCC4=CC(=NO)CCC4C3CCC21CC (configuration not stated) [Norgestimate] |
